In US12435061B2 (priority 2020, dated 2025):
Values after ≈ are worked out from the molar mass of the structure shown.

Assays:
[1] = target: T1, hTRPV3 (Homo sapiens (Human), UniProt Q8NET8); test: FLIPR Assay (calcium flux, HEK293 cells stably expressing TRPV3); assay type: cell-based
Experimental: In Tables 3 and 4, Phase 1 refers to Phase 1 current for human (h) TRPV3 or rat (r) TRPV3, and Phase 2 refers to Phase 2 current for human (h) TRPV3 or rat (r) TRPV3. The hTRPV3 and rTRPV3 assays were performed as described herein. hERG refers to the inhibition the human ERG (hERG) channel. NaV1.5, refers to the pore forming aL-subunit of the voltage-dependent cardiac Na(+) channel and is an integral membrane protein involved in the initiation and conduction of action potentials. hTRPV3 HAMA IC50 refers to the IC50 of TRPV3 cells stably expressed in TRex-293 cells. Solubility Ringer refers to the compounds' solubility in Ringer's solution. LM T1/2 refers to liver microsome half-lives in either rat or human liver microsomes. FLIPR IC50 refers to the IC50 of the test compounds against recombinant hTRPV3 cells.
The cells were treated with IBSS and 20 mM HEPES adjusted to pH 7.4 in the presence of the fluorescent calcium indicator e.g. Fluo-4AM (5 uM) and the plates were incubated at 37° C. and […] for approximately 1 hour and cooled to room temperature. […] Relative Fluorescence Units (RFU) were measured for each response for signal maximum minus minimum during approximately 90 seconds after addition.

[2] = Metabolic Stability assay, rat liver microsomes; assay type: in vitro ADME; settings: for half-life at 1 μM: read-out: LM T1/2 (min) (rat)
Summary of the method: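 Test article at 1 μM starting concentration incubated with human or rat liver microsomes at 37 °C, with the reaction started by NADPH regeneration components. Aliquots were quenched in cold acetonitrile/MeOH/H2O at 0, 7, 15, 30 and 60 min and analysed by HPLC/MS/MS.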

[3] = Aqueous solubility assay in Normal Ringer Solution; settings: Normal Ringer Solution; for solubility at 40 min: saline or isotonic, kinetic from dmso stock
Experimental: Following vortex and incubation for a sufficient time (e.g. 40 minutes at room temperature), solutions were filtered, quenched with acetonitrile, and analyzed by Liquid Chromotography. Solubility Limits were determined by comparison to a standard curve.

[4] = target: T1, hTRPV3; test: Whole-cell patch clamp, hTRPV3 Phase 1 / Phase 2 currents; assay type: cell-based
Summary of the method: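 Whole-cell recordings on induced TRPV3 cells replated on coverslips, held at −40 mV with 400 ms ramps from −120 to +100 mV every 5 s; currents read at −80 and +80 mV. Ringer's external solution; current activated by heating to ≥28 °C or 20 μM 2-APB.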

[5] = target: T1, hTRPV3; test: hTRPV3 HAMA IC50 assay (Hamamatsu FDSS6000 calcium flux, TRex-293 cells)
Experimental: IC50s were calculated using CBIS from ChemInnovation (San Diego).

[6] = Phase 1 current, inward, whole-cell patch clamp, read-out: hTRPV3 Patch P1 Inwd
[7] = Phase 1 current, read-out: hTRPV3 (nM) (Phase 1)
[8] = hTRPV3 HAMA IC50 (nM) (5 min), 5 min
[9] = Phase 2 current, inward, whole-cell patch clamp, read-out: hTRPV3 Patch P2 Inwd
[10] = Phase 2 current, read-out: hTRPV3 (nM) (Phase 2)
[11] = hTRPV3 HAMA IC50 (nM) (30 min), 30 min

T1 sequence (Q8NET8 whole entry): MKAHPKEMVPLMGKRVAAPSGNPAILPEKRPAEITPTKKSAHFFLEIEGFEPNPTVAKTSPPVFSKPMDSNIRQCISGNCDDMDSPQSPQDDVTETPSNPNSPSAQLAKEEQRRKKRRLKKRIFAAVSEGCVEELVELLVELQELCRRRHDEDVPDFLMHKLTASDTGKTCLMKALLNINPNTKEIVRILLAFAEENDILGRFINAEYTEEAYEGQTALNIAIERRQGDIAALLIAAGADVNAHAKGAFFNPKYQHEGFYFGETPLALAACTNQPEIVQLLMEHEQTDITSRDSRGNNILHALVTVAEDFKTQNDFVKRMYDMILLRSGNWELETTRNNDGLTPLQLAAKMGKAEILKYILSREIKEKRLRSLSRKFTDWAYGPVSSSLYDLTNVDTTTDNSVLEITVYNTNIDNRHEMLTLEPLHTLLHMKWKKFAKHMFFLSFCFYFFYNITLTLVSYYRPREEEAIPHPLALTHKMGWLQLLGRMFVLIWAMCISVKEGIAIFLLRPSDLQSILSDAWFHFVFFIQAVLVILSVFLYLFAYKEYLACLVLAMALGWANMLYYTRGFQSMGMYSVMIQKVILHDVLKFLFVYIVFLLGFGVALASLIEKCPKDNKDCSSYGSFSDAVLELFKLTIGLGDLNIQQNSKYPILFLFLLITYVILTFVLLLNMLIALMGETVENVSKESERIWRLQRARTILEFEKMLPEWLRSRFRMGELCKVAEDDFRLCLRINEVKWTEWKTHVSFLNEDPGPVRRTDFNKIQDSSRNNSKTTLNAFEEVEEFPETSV

COCc1ccnc(C(=O)N2CCC(c3ccc(-c4ccccc4C4CC4)cc3CO)C2)c1 (centres unmarked) [Compound 2.155]
IC50 ([1]; read-out: FLIPR IC50): 9.25 µM

O=C(c1ccc(O)cn1)N1CCC(c2ccc(-c3ccccc3C3CC3)cc2CO)C1 (centres unmarked) [Compound 2-135]
IC50 ([1]; read-out: FLIPR IC50): 3.09 µM

O=C(c1cc(CO)ccn1)N1CCC(c2ccc(-c3ccccc3C3CC3)cc2CO)C1 (centres unmarked) [Compound 2.154]
IC50 ([1]; read-out: FLIPR IC50): 4.21 µM

O=C(c1ccc(O)nn1)N1CCC(c2ccc(-c3ccccc3C3CC3)cc2CO)C1 (centres unmarked) [Compound 2-133]
IC50 ([1]; read-out: FLIPR IC50): > 10 µM

Cc1ccc(C(=O)N2CCC(c3ccc(-c4ccccc4C4CC4)cc3CO)C2)nc1O (centres unmarked) [Compound 2-140]
IC50 ([1]; read-out: FLIPR IC50): 5.57 µM

Cn1ccnc1C(=O)N1CCC(c2ccc(-c3ccccc3C3CC3)cc2CO)C1 (centres unmarked) [Compound 2-164]
IC50 ([1]; read-out: FLIPR IC50): > 10 µM

O=C(c1csc(CO)n1)N1CCC(c2ccc(-c3ccccc3C3CC3)cc2CO)C1 (centres unmarked) [Compound 2-160]
IC50 ([1]; read-out: FLIPR IC50): > 10 µM

O=C(c1ncc(Cl)cn1)N1CCC(c2ccc(-c3ccccc3C3CC3)cc2CO)C1 (centres unmarked) [Compound 2-159]
IC50 ([1]; read-out: FLIPR IC50): 5.18 µM

O=C(c1cc(O)ccn1)N1CCC(c2ccc(-c3ccccc3C3CC3)cc2CO)C1 (centres unmarked) [Compound 2-132]
IC50 ([1]; read-out: FLIPR IC50): > 10 µM

Cn1ccc(C(=O)N2CCC(c3ccc(-c4ccccc4C4CC4)cc3CO)C2)n1 (centres unmarked) [Compound 2-163]
IC50 ([1]; read-out: FLIPR IC50): > 10 µM

O=C(c1cccc(CO)n1)N1CCC(c2ccc(-c3ccccc3C3CC3)cc2CO)C1 (centres unmarked) [Compound 2.152]
IC50 ([1]; read-out: FLIPR IC50): 4.56 µM

O=C(c1cncc(O)n1)N1CCC(c2ccc(-c3ccccc3C3CC3)cc2CO)C1 (centres unmarked) [Compound 2-131]
IC50 ([1]; FLIPR IC50 (uM)): > 10 µM

O=C(c1cnc(CO)cn1)N1CCC(c2ccc(-c3ccccc3C3CC3)cc2CO)C1 (centres unmarked) [Compound 2-137]
IC50 ([1]; read-out: FLIPR IC50): > 10 µM

O=C(c1ncccc1O)N1CCC(c2ccc(-c3ccccc3C3CC3)cc2CO)C1 (centres unmarked) [Compound 2-139]
IC50 ([1]; read-out: FLIPR IC50): 7.68 µM

CCc1ccccc1-c1ccc(CO)c(N2CC[C@H](Oc3ncccc3Cl)C2)c1 [Compound 1-229, (S)-(3-(3-(3-chloropyridin-2-yloxy)pyrrolidin-1-yl)-2′-ethylbiphenyl-4-yl)methanol]
half-life at 1 μM [2]: 4.46 min | solubility at 40 min [3]: 0.16 µM (≈ 0.0654 µg/mL) | IC50 [4, 6]: 10 to 100 nM | IC50 [4, 7]: 69.2 nM | hTRPV3 HAMA IC50 (nM) (5 min) ([5]; 5 min): no fit (5 min) no fit (30 min) | hTRPV3 HAMA IC50 (nM) (30 min) ([5]; 30 min): no fit (5 min) no fit (30 min)

CCc1oc(C(=O)N2CCC(c3ccc(-c4ccccc4C4CC4)cc3CO)C2)nc1C (centres unmarked) [Compound 2.145]
IC50 ([1]; read-out: FLIPR IC50): 4.43 µM

Cc1ocnc1C(=O)N1CCC(c2ccc(-c3ccccc3C3CC3)cc2CO)C1 (centres unmarked) [Compound 2.148]
IC50 ([1]; read-out: FLIPR IC50): 2.93 µM

Cn1cnc(C(=O)N2CCC(c3ccc(-c4ccccc4C4CC4)cc3CO)C2)c1 (centres unmarked) [Compound 2-161]
IC50 ([1]; read-out: FLIPR IC50): 9.52 µM

O=C(c1nccnc1O)N1CCC(c2ccc(-c3ccccc3C3CC3)cc2CO)C1 (centres unmarked) [Compound 2.150]
IC50 ([1]; read-out: FLIPR IC50): > 10 µM

O=C(c1ccc(CO)nn1)N1CCC(c2ccc(-c3ccccc3C3CC3)cc2CO)C1 (centres unmarked) [Compound 2-138]
IC50 ([1]; read-out: FLIPR IC50): > 10 µM

O=C(c1cnc(O)cn1)N1CCC(c2ccc(-c3ccccc3C3CC3)cc2CO)C1 (centres unmarked) [Compound 2-130]
IC50 ([1]; FLIPR IC50 (uM)): 4.8 µM

OCc1nc(Oc2ccccc2)ccc1N1CC[C@H](Oc2ccc(C(F)(F)F)cn2)C1 [Compound 1-139, (S)-(6-phenoxy-3-(3-(5-(trifluoromethyl)pyridin-2-yloxy)pyrrolidin-1-yl)pyridin-2-yl)methanol]
LM T1/2 (min) (rat) ([2]; 1 μM): 30.7 (rat) min | Solubility Ringer ([3]; room temperature): ~0.3 µM (≈ 0.129 µg/mL) | IC50 [4, 6]: 10 to 100 nM | IC50 [4, 7]: 23.6 nM | IC50 ([5]; read-out: hTRPV3 HAMA IC50 (nM) (5 min), 5 min): 5750 nM

CN1CCc2nc(C(=O)N3CCC(c4ccc(-c5ccccc5C5CC5)cc4CO)C3)sc2C1 (centres unmarked) [Compound 2-165]
IC50 ([1]; read-out: FLIPR IC50): > 10 µM

O=C(c1cc2n(n1)CCC2)N1CCC(c2ccc(-c3ccccc3C3CC3)cc2CO)C1 (centres unmarked) [Compound 2-162]
IC50 ([1]; read-out: FLIPR IC50): 5.19 µM

Cc1nc(C(=O)N2CCC(c3ccc(-c4ccccc4C4CC4)cc3CO)C2)cnc1O (centres unmarked) [Compound 2-136]
IC50 ([1]; read-out: FLIPR IC50): 5.17 µM

NC(=O)c1cc(C(O)c2ccccc2)ccc1N1CC[C@H](Oc2ccc(C(F)(F)F)cn2)C1 (stereo partly drawn) [Compound 1-146, 5-(hydroxy(phenyl)methyl)-2-((S)-3-(5-(trifluoromethyl)pyridin-2-yloxy)pyrrolidin-1-yl)benzamide]
half-life at 1 μM [2]: 45.8 min | solubility at 40 min [3]: > 13.3 µM | IC50 [4, 6]: 100 to 1000 nM | IC50 [4, 7]: 686 nM | IC50 [5, 8]: 11800 nM

Cc1nnc(C(=O)N2CCC(c3ccc(-c4ccccc4C4CC4)cc3CO)C2)o1 (centres unmarked) [Compound 2-129]
IC50 ([1]; read-out: FLIPR IC50): > 10 µM

COc1cnc(C(=O)N2CCC(c3ccc(-c4ccccc4C4CC4)cc3CO)C2)nc1 (centres unmarked) [Compound 2.158]
IC50 ([1]; read-out: FLIPR IC50): 6.12 µM

OCc1cc(Oc2ccccc2Cl)ccc1N1CC[C@H](Oc2ncccc2Cl)C1 [Compound 1-223, (S)-(5-(2-chlorophenoxy)-2-(3-(3-chloropyridin-2-yloxy)pyrrolidin-1-yl)phenyl)methanol]
half-life at 1 μM [2]: 17.2 min | Solubility Ringer (nM) ([3]; room temperature): BLQ | IC50 [4, 6]: 10 to 100 nM | IC50 [4, 7]: 39.3 nM | IC50 [4, 9]: 10 to 100 nM | IC50 [4, 10]: 13.3 nM | hTRPV3 HAMA IC50 (nM) (5 min) ([5]; 5 min): no fit | IC50 [5, 11]: 14600 nM

OCc1cc(Oc2ccccc2)ccc1N1CC[C@H](Oc2ncccc2Cl)C1 [Compound 1-168, (S)-(2-(3-(3-chloropyridin-2-yloxy)pyrrolidin-1-yl)-5-phenoxyphenyl)methanol]
half-life at 1 μM [2]: 26.7 min | solubility at 40 min [3]: ~0.5 µM (≈ 0.198 µg/mL) | IC50 [4, 6]: 10 to 100 nM | IC50 [4, 7]: 61.2 nM | IC50 [4, 9]: 10 to 100 nM | IC50 [4, 10]: 90.5 nM | IC50 [5, 8]: > 20000 nM

NC(=O)c1cc(-c2ccccc2)ccc1N1CC[C@H](Oc2ccc(C(F)(F)F)cn2)C1 [Compound 1-32, (S)-4-(3-(5-(trifluoromethyl)pyridin-2-yloxy)pyrrolidin-1-yl)biphenyl-3-carboxamide]
half-life at 1 μM [2]: 44.3 min | Solubility Ringer (nM) ([3]; room temperature): BLQ | IC50 [4, 6]: 100 to 1000 nM | IC50 [4, 7]: 285 nM | IC50 [4, 9]: 100 to 1000 nM | IC50 [4, 10]: 273 nM | hTRPV3 HAMA IC50 (nM) (5 min) ([5]; 5 min): no fit (5 min)

NC(=O)c1cc(Cl)ccc1N1CC[C@H](Oc2ccc(C(F)(F)F)cn2)C1 [Compound 1-31, (S)-5-chloro-2-(3-(5-(trifluoromethyl)pyridin-2-yloxy)pyrrolidin-1-yl)benzamide]
half-life at 1 μM [2]: 34.3 min | solubility at 40 min [3]: > 16.8 µM | IC50 [4, 6]: 100 to 1000 nM | IC50 [4, 7]: ~883 nM | IC50 [4, 9]: 100 to 1000 nM | IC50 [4, 10]: 546 nM | hTRPV3 HAMA IC50 (nM) (5 min) ([5]; 5 min): no fit (5 min)

NC(=O)c1cc(C(=O)c2ccccc2)ccc1N1CC[C@H](Oc2ccc(C(F)(F)F)cn2)C1 [Compound 1-130, (S)-5-benzoyl-2-(3-(5-(trifluoromethyl)pyridin-2-yloxy)pyrrolidin-1-yl)benzamide]
half-life at 1 μM [2]: 67 min | solubility at 40 min [3]: ~12.2 µM (≈ 5.56 µg/mL) | IC50 [4, 6]: > 1000 nM | IC50 [4, 7]: 1540 nM | hTRPV3 HAMA IC50 (nM) (5 min) ([5]; 5 min): no fit (5 min)

Cc1ccccc1Oc1ccc(N2CC[C@H](Oc3ncccc3Cl)C2)c(CCO)c1 [Compound 1-235, (S)-2-(2-(3-(3-chloropyridin-2-yloxy)pyrrolidin-1-yl)-5-(o-tolyloxy)phenyl)ethanol]
half-life at 1 μM [2]: 21.9 min | Solubility Ringer (nM) ([3]; room temperature): BLQ | IC50 [4, 6]: 10 to 100 nM | IC50 [4, 7]: 19.9 nM | IC50 [5, 8]: > 20000 nM | IC50 [5, 11]: 6600 nM

NC(=O)c1cc(C(O)c2ccccc2)ccc1N1CC[C@H](Oc2ncccc2Cl)C1 (stereo partly drawn) [Compound 1-137, 2-((S)-3-(3-chloropyridin-2-yloxy)pyrrolidin-1-yl)-5-(hydroxy(phenyl)methyl)benzamide]
half-life at 1 μM [2]: 8.72 min | solubility at 40 min [3]: > 17.7 µM | IC50 [4, 6]: > 1000 nM | IC50 [4, 7]: 2980 nM | hTRPV3 HAMA IC50 (nM) (5 min) ([5]; 5 min): no fit (5 min)
